Each structure is given as a SMILES string. Values after ≈ are worked out from the molar mass of the structure shown.

Format in all cases: functional
Assay [1] relates to Staphylococcus aureus. Description: In vivo Antibacterial activity against Methicillin-resistant Staphylococcus aureus in PO dosed mouse infected model assessed as reduction in bacterial load.
In the next assay the test system is Haemophilus influenzae. Description: Antibacterial activity against Haemophilus influenzae UC30063 assessed as reduction in bacterial growth by broth microdilution method.
For another assay, the system named is Moraxella catarrhalis. Description: Antibacterial activity against Moraxella catarrhalis UC30610 assessed as reduction in bacterial growth by broth microdilution method. (In general: Dilution methods test growth across graded concentrations, often in twofold steps.)
The subject of assay [2] is Enterococcus faecalis. Description: Antibacterial activity against Enterococcus faecalis UC9217 assessed as reduction in bacterial growth by broth microdilution method.
Assay [3] relates to Staphylococcus epidermidis. Description: Antibacterial activity methicillin-resistant Staphylococcus epidermidis UC12084 assessed as reduction in bacterial growth by broth microdilution method.
Assay [4] has as its system Staphylococcus aureus. Description: Antibacterial activity against Staphylococcus aureus ATCC 29213 assessed as reduction in bacterial growth incubated for 24 hrs by serial dilution method.
For assay [5], the system named is Mycobacterium tuberculosis. Description: Antimycobacterial activity against Mycobacterium tuberculosis assessed as reduction in bacterial growth.
Assay [6] concerns Staphylococcus aureus. Description: Antibacterial activity against Linezolid-resistant Staphylococcus aureus assessed as reduction in bacterial growth.
The test system of a further assay is Enterococcus faecium. Description: Antibacterial activity against Linezolid-resistant Enterococcus faecium assessed as reduction in bacterial growth.
In assay [7] the test system is Staphylococcus epidermidis. Description: Antibacterial activity against Staphylococcus epidermidis ATCC 12228 assessed as reduction in bacterial growth measured after 24 hrs by broth microdilution method.
Assay [8] has as its system Staphylococcus aureus. Description: Antibacterial activity against Staphylococcus aureus ATCC 29213 assessed as reduction in microbial growth measured after 24 hrs by broth microdilution analysis.
The subject of assay [9] is Enterococcus faecalis. Description: Antibacterial activity against Enterococcus faecalis ATCC 29212 assessed as inhibition of bacterial growth incubated for 24 hrs by CLSI based broth microdilution method.
Assay [10] deals with Staphylococcus aureus. Description: Antibacterial activity against Staphylococcus aureus ATCC 25923 assessed as inhibition of bacterial growth incubated for 24 hrs by CLSI based broth microdilution method.
In assay [11] the test system is Staphylococcus aureus. Description: Antibacterial activity against Staphylococcus aureus ATCC 29213 assessed as bacterial growth inhibition incubated for 24 hrs by broth dilution method.
Assay [12] deals with Streptococcus pneumoniae. Description: Antibacterial activity against Streptococcus pneumoniae ATCC 49619 assessed as inhibition of bacterial growth incubated for 24 hrs by CLSI based broth microdilution method.
For assay [13], the system named is Staphylococcus aureus. Description: Antibacterial activity against methicillin-resistant Staphylococcus aureus ATCC 3300 assessed as reduction in microbial growth measured after 24 hrs by broth microdilution analysis.
For assay [14], the system named is Staphylococcus aureus. Description: Antibacterial activity against Staphylococcus aureus ATCC 29213 assessed as reduction in bacterial growth incubated for 24 hrs by Mueller Hinton Agar based plate analysis.
Assay [15] has as its system Staphylococcus aureus. Description: Antibacterial activity against fluoroquinolone/methicillin resistant Staphylococcus aureus clinical isolate 19-26 assessed as bacterial growth inhibition measured after 16 to 18 hrs by serial dilution method. To be noted: time 16-18 hrs.
The test system of assay [16] is Staphylococcus aureus. Description: Antibacterial activity against vancomycin-resistant Staphylococcus aureus assessed as bacterial growth inhibition measured after 16 to 18 hrs by serial dilution method. To be noted: time 16-18 hrs.
The subject of assay [17] is Streptococcus pneumoniae. Description: Antibacterial activity against Streptococcus pneumoniae.
Another assay has as its system Escherichia coli. Description: Antibacterial activity against Escherichia coli.

As usually defined, the ED50 is the dose that gives a 50% effect, or the effect in half of the subjects. `CC(=O)NC[C@H]1CN(c2ccc(-n3cc(C#N)nn3)c(F)c2)C(=O)O1`: the ED50 in the assay on Staphylococcus aureus [1] turned out to be 1.2 mg/kg. Besides, the MIC in the assay on Haemophilus influenzae is 2 µg/mL (≈ 5.81 µM); in the assay on Moraxella catarrhalis, 2 µg/mL (≈ 5.81 µM); in the assay with Enterococcus faecalis [2], 0.125 µg/mL (≈ 0.363 µM); in assay [3] it was 0.125 µg/mL (≈ 0.363 µM).
As for `CC(=O)NC[C@H]1CN(c2ccc(-n3ncc(C#N)n3)c(F)c2)C(=O)O1`, the 50% effective dose (ED50) in the assay on Staphylococcus aureus [1] turned out to be 1.9 mg/kg. Moreover, the MIC with Haemophilus influenzae came out at 2 µg/mL (≈ 5.81 µM); in the assay with Moraxella catarrhalis, 2 µg/mL (≈ 5.81 µM); with Enterococcus faecalis [2] it was 0.125 µg/mL (≈ 0.363 µM); in [3], 0.125 µg/mL (≈ 0.363 µM).
With `CC(=O)NC[C@H]1CN(c2ccc(-n3cc(C(=O)O)c(=O)c4cc(F)c(N5CCN(C)CC5)cc43)c(F)c2)C(=O)O1`, the MIC with Staphylococcus aureus [4] is > 64 µg/mL.
On to `CC(=O)NC[C@H]1CN(c2ccc(N3CCSCC3)c(F)c2)C(=O)O1` [SUTEZOLID], for which the MIC in assay [5] is 0.125 µg/mL (≈ 0.354 µM).
As for `CC(=O)NC[C@H]1CN(c2ccc(N3CCN(c4c(F)cc5c(=O)c(C(=O)O)cn6c5c4OC[C@@H]6C)CC3)c(F)c2)C(=O)O1`, the MIC in the assay on Staphylococcus aureus [6] amounted to 2 µg/mL (≈ 3.35 µM); in the assay on Enterococcus faecium it was 0.5 µg/mL (≈ 0.837 µM).
In the case of `O=C([C@H](O)CO)N1CC=C(c2ccc(N3C[C@H](COc4cnsn4)OC3=O)cc2F)CC1`, in assay [7], the MIC came to 0.13 µg/mL (≈ 0.28 µM).
For the compound `CC(=O)NC[C@H]1CN(c2ccc(-n3ccc(C#N)c3)c(F)c2)C(=O)O1`, the ED50 in the assay on Staphylococcus aureus [1] came out at 1.9 mg/kg. Also, the MIC was determined as 2 µg/mL (≈ 5.84 µM) with Haemophilus influenzae, 2 µg/mL (≈ 5.84 µM) with Moraxella catarrhalis, 0.125 µg/mL (≈ 0.365 µM) in the assay with Enterococcus faecalis [2] and 0.125 µg/mL (≈ 0.365 µM) in [3].
In the case of `O=C([C@@H](O)CO)N1CC=C(c2c(F)cc(N3C[C@H](COc4ccon4)OC3=O)cc2F)CC1` [POSIZOLID], in the assay with Staphylococcus aureus [8], the MIC stood at 0.25 µg/mL.
Consider `CC(=O)NC[C@H]1CN(c2ccc(N3CCN(C(=O)/C=C/c4ccco4)CC3)nc2)C(=O)O1`, for which the MIC in the assay with Enterococcus faecalis [9] and in the assay on Staphylococcus aureus [10] was 8 µg/mL (≈ 18.2 µM) in each case.
`N=C(S)NC[C@H]1CN(c2cc(F)c3c(c2)OC[C@@H]2CCCN32)C(=O)O1`: the MIC in the assay with Staphylococcus aureus [11] was 0.5 µg/mL (≈ 1.36 µM).
Consider `CC(=O)NC[C@H]1CN(c2ccc(N3CCN(c4c(F)cc5c(=O)c(C(=O)O)cn6c5c4OCC6C)CC3)c(F)c2)C(=O)O1` (some centres not stated), for which the MIC in the assay with Staphylococcus aureus [6] was determined as 2 µg/mL (≈ 3.35 µM); in the assay with Enterococcus faecium it was 0.5 µg/mL (≈ 0.837 µM).
Taken in the same sequence, the figures for `CC(=O)NC[C@H]1CN(c2ccc(N3CCN(c4cc5c(cc4F)c(=O)c(C(=O)O)cn5C4CC4)CC3)c(F)c2)C(=O)O1` were 2 µg/mL (≈ 3.44 µM) and 0.5 µg/mL (≈ 0.86 µM).
As to `CC(=O)NC[C@H]1CN(c2ccc(N3CCN(C(=O)c4ccco4)CC3)nc2)C(=O)O1`, the MIC with Streptococcus pneumoniae [12] was > 64 µg/mL.
Regarding `O=C1O[C@@H](COc2ccon2)CN1c1ccc(C2=CCOCC2)c(F)c1`, the MIC in the assay on Staphylococcus aureus [13] worked out at 0.5 µg/mL.
In the case of `O=C1O[C@@H](COc2ccccn2)CN1c1ccc(C2=CCOCC2)c(F)c1`, the MIC in the assay with Staphylococcus aureus [13] was found to be 1 µg/mL.
On to `CC(=O)NC[C@H]1CN(c2ccc3c(c2)OC[C@@H]2CCCN32)C(=O)O1`, for which the MIC with Staphylococcus aureus [14] was found to be 4 µg/mL (≈ 12.1 µM).
For the compound `O=C([C@H](O)CO)N1CC=C(c2ccc(N3C[C@H](COc4ccon4)OC3=O)cc2F)CC1`, in the assay with Staphylococcus aureus [8], the MIC worked out at 0.25 µg/mL.
`O=C1C=CN(c2c(F)cc(N3C[C@H](CNc4ccon4)OC3=O)c(F)c2F)CC1` [CONTEZOLID]: the MIC amounted to 0.125 µg/mL (≈ 0.306 µM) with Staphylococcus aureus [15] and 0.5 µg/mL (≈ 1.22 µM) with Staphylococcus aureus [16].
Regarding `O=C(NO)[C@@H]1CN(c2ccc(C#CC#CC3CC3)c(F)c2)C(=O)O1`, the MIC with Streptococcus pneumoniae [17] and against Escherichia coli was 0.004 µg/mL (≈ 0.0122 µM) throughout.

These data come from ChEMBL document CHEMBL5532634, “Oxazolidinone: A promising scaffold for the development of antibacterial drugs” (Eur J Med Chem, 2023).
